# Values quoted from earlier work, collected in PMC10386743, “Application of Ligand- and Structure-Based Prediction Models for the Design of Alkylhydrazide-Based HDAC3 Inhibitors as Novel Anti-Cancer Compounds” (Pharmaceuticals, 2023).
# Tested on: HDAC3
# Details: experimentally determined
row,Structure (SMILES),activity on HDAC3 (in words)
1,CCCNNC(=O)c1ccc(CNC(C)=O)cc1 [Compound 68],moderate activity

# Same assay, conditions: newly designed compounds
row,Structure (SMILES),pIC50 HDAC3 (HDAC3 experimental pIC50)
1,CCCNNC(=O)c1cnc(NCc2ccccc2)nc1 [Compound 72],7.37
2,CCCNNC(=O)c1cnc(NCc2cc(Cl)ccc2Cl)nc1 [Compound 78],7.24
3,CCCCCCNNC(=O)c1cnc(NCc2ccc(CNC(C)=O)cc2)nc1 [Compound 84],<5.00
4,CCCCCCNNC(=O)c1cnc(NCc2cccc3ccccc23)nc1 [Compound 81],<5.00
5,CCCNNC(=O)c1cnc(N2CCN(C)CC2)nc1 [Compound 79],6.92
6,CCCCCCNNC(=O)c1ccc(-c2ccc(CNC(C)=O)cc2)cc1 [Compound 67],<5.00
7,CCCNNC(=O)c1cnc(NCc2ccc(Cl)cc2)nc1 [Compound 77],7.43
8,CCCNNC(=O)c1ccc(CNC(C)=O)cc1 [Compound 68],5.80
9,CCCCCCNNC(=O)c1cnc(N2CCN(CCc3c[nH]c4ccccc34)CC2)nc1 [Compound 88],6.00
